Our source for the IC50 values is patent US11420970B1 (NOVARTIS AG, priority 2019, dated 2022).

For test [1], the system named is cellular H3K36me2 level in multiple myeloma cell line KMS11 (t(4;14)+). The test can be described thus: H3K36me2 cellular ELISA assay in KMS11-Par line. It counts as cell-based. To be noted: Homo sapiens, KMS-11; KMS11-Par line (t(4;14)+), 72 hours treatment, ELISA; read-out: H3K36me2 ELISA in KMS11-Par. In short, it runs like this:
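After 72 h compound exposure, HCl-extracted histones from KMS11 (t(4;14)+) cells were probed by ELISA for H3K36me2 against total H3 with a chemiluminescence read-out. Cells were plated at 1,250/well in Opti-MEM plus B-27 and N2 the day before. A parallel CellTiter-Glo plate tracked viability.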

Test [2] deals with NSD2 [1-1365] (Homo sapiens (Human), UniProt O96028). As to the kind of experiment: LC-MS/MS-based NSD2 enzymatic assay (SAH production). It counts as biochemical. To be noted: read-out: NSD2 IC50. The procedure, abridged:
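SAH formed was measured by LC-MS/MS using d4-SAH as internal standard and an SAH calibration curve. Compounds were preincubated 20 min with NSD2 [1-1365] and SAM; mouse-liver nucleosome then started a 90 min room-temperature reaction (8 nM enzyme, 1 μM SAM, 400 nM nucleosome final, pH 8.0), stopped with TFA.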

In test [3] the test system is cellular H3K36me2 level in thyroid carcinoma cell line CGTH-W-1 (NSD2 E1099K). The test can be described thus: H3K36me2 cellular ELISA assay in CGTH-W-1 line. It counts as cell-based. To be noted: Homo sapiens, read-out: H3K36me2 ELISA in CGTH-W-1. The method, then:
H3K36Me2 Cellular ELISA Assay in CGTH-W-1 Line
An ELISA (enzyme-linked immunosorbent assay) based assay was used to test the ability of candidate compound to reduce cellular H3K36me2 level in thyroid carcinoma cell line CGTH-W-1, carrying NSD2 E1099K gain of function mutation. CGTH-W-1 (DSMZ) cells are maintained in RPM11640 media with 10% FBS and 50 U/ml Penicillin-Streptomycin.
Cells were treated with tested compounds at the desired concentration for 72 hours.
Histone bound plates were washed and blocked with 5% BSA. […] The abundance of H3K36me2 and total H3 was measured by Chemiluminesce on a plate reader. Cell viability was monitored on a parallel seeded plate with CellTiter-Glo reagent (Promega #G7573).

Setting [4] is: NSD2 biochemical activity, class symbols.

Like-named read-outs stand apart in the source and are kept apart here.

NSD2 [1-1365], sequence (O96028 whole entry): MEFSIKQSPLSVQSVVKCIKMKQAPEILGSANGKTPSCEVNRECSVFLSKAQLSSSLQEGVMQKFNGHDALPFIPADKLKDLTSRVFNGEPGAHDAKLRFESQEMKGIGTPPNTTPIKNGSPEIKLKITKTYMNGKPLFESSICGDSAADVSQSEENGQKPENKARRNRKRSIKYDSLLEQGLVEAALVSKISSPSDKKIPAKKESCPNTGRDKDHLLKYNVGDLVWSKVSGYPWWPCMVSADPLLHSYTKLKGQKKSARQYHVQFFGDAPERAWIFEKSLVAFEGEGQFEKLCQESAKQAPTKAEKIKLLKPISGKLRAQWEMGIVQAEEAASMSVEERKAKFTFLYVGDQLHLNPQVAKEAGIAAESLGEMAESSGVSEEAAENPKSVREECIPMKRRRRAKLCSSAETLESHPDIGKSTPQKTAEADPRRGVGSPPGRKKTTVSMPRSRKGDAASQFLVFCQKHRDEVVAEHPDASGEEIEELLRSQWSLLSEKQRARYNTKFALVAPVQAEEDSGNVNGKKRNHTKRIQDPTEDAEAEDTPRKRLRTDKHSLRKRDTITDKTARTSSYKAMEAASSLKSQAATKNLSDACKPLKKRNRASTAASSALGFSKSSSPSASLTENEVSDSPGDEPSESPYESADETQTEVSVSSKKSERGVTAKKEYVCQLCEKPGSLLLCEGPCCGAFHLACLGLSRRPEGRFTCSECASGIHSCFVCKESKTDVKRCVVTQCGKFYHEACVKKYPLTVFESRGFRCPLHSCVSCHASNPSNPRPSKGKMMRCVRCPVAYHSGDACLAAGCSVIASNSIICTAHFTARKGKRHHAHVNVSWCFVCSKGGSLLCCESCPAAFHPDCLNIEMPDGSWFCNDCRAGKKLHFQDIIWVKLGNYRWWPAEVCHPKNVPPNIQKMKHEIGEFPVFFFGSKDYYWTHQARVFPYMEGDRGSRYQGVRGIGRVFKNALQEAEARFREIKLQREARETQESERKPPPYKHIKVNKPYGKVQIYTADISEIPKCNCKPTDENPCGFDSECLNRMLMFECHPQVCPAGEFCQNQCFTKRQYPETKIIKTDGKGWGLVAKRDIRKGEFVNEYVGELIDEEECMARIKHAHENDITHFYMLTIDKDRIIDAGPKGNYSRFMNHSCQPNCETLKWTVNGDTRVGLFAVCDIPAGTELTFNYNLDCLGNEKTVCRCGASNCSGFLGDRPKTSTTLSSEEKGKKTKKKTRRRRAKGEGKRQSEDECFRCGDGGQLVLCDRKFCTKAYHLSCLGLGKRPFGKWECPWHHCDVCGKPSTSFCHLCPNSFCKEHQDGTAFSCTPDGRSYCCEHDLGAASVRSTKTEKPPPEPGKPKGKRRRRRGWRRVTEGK

`COc1c(F)cc(-c2cc(Cn3cnc4c(N)ncnc43)c(N3CCC[C@](N)(C(O)C(F)F)C3)cn2)cc1F` (stereo in doubt) [Example 164, (R)-1-((R)-3-amino-1-(4-((6-amino-9H-purin-9-yl)methyl)-6-(3,5-difluoro-4-methoxyphenyl)pyridin-3-yl)piperidin-3-yl)-2,2-difluoroethan-1-ol]: the IC50 was 1.06 µM in test [1]; 0.001 to 0.01 µM in test [2] (setting [4]); 0.13 µM in test [3] (CGTH-W-1, 72 h).

For the compound `COc1c(F)cc(-c2cc(Cn3cnc4c(N)ncnc43)c(N3CCC[C@](N)(C(O)C(F)F)C3)cn2)cc1F` (stereo in doubt) [Example 165, (S)-1-((R)-3-amino-1-(4-((6-amino-9H-purin-9-yl)methyl)-6-(3,5-difluoro-4-methoxyphenyl)pyridin-3-yl)piperidin-3-yl)-2,2-difluoroethan-1-ol], the IC50 in test [1] was 1.08 µM; in test [2] (setting [4]) it was 0.001 to 0.01 µM; in test [3] (CGTH-W-1, 72 h) it was 0.218 µM.

As for `COc1ccc(-c2cc(Cn3cnc4c(N)ncnc43)c(N3CCC[C@](N)(C(O)C(F)F)C3)cn2)c(C(F)(F)F)c1` (stereo in doubt) [Example 166, (S)-1-((R)-3-amino-1-(4-((6-amino-9H-purin-9-yl)methyl)-6-(4-methoxy-2-(trifluoromethyl)phenyl)pyridin-3-yl)piperidin-3-yl)-2,2-difluoroethan-1-ol], the IC50 in test [1] was 8.51 µM; in test [2] (setting [4]), 0.001 to 0.01 µM; in test [3] (CGTH-W-1, 72 h), 0.432 µM.

For the compound `COc1cccc([C@@]2(N)CCCN(c3cnc(-c4ccc(F)c(F)c4)cc3Cn3cnc4c(N)ncnc43)C2)n1` [Example 178, (R)-9-((5-(3-amino-3-(6-methoxypyridin-2-yl)piperidin-1-yl)-2-(3,4-difluorophenyl)pyridin-4-yl)methyl)-9H-purin-6-amine], the IC50 was 0.001 to 0.01 µM in test [2] and 0.23 µM in test [3] (CGTH-W-1, 72 h).

In the case of `Nc1ncnc2c1ncn2Cc1cc(-c2ccc3c(c2)COC3)ncc1N1CCCC(N)(c2cccc(Cl)n2)C1` (stereo not drawn) [Example 179, 9-((5-(3-amino-3-(6-chloropyridin-2-yl)piperidin-1-yl)-2-(1,3-dihydroisobenzofuran-5-yl)pyridin-4-yl)methyl)-9H-purin-6-amine], the IC50 in test [2] is 0.01 to 1 µM; in test [3] (CGTH-W-1, 72 h), 1.42 µM.

Turning to `Nc1ncnc2c1ncn2Cc1cc(-c2ccc(OC(F)F)cc2)ncc1N1CCCC(N)(c2cccc(Cl)n2)C1` (stereo not drawn) [Example 184, 9-((5-(3-amino-3-(6-chloropyridin-2-yl)piperidin-1-yl)-2-(4-(difluoromethoxy)phenyl)pyridin-4-yl)methyl)-9H-purin-6-amine], the IC50 in test [2] was 0.01 to 1 µM; in test [3] (CGTH-W-1, 72 h), 0.592 µM.

Consider `Nc1ncnc2c1ncn2Cc1cc(-c2ccc3c(c2)OCO3)ncc1N1CCCC(N)(c2cccc(Cl)n2)C1` (stereo not drawn) [Example 186, 9-((5-(3-amino-3-(6-chloropyridin-2-yl)piperidin-1-yl)-2-(benzo[d][1,3]dioxo1-5-yl)pyridin-4-yl)methyl)-9H-purin-6-amine], for which the IC50 is 0.01 to 1 µM in test [2] and 0.967 µM in test [3] (CGTH-W-1, 72 h).

With `NC(=O)c1cccc(C2(N)CCCN(c3cnc(-c4ccc(F)c(F)c4)cc3Cn3cnc4c(N)ncnc43)C2)n1` (stereo not drawn) [Example 195, 6-(3-amino-1-(4-((6-amino-9H-purin-9-yl)methyl)-6-(3,4-difluorophenyl)pyridin-3-yl)piperidin-3-yl)picolinamide], the IC50 in test [2] was 0.01 to 1 µM; in test [3] (CGTH-W-1, 72 h), 4.92 µM.

With `N#Cc1cccc(C2(N)CCCN(c3cnc(-c4ccc(F)c(F)c4)cc3Cn3cnc4c(N)ncnc43)C2)n1` (stereo not drawn) [Example 208, 6-(3-amino-1-(4-((6-amino-9H-purin-9-yl)methyl)-6-(3,4-difluorophenyl)pyridin-3-yl)piperidin-3-yl)picolinonitrile], the IC50 in test [2] is 0.01 to 1 µM; in test [3] (CGTH-W-1, 72 h), 2.78 µM.

With `Nc1ncnc2c1ncn2Cc1cc(-c2ccc(F)c(F)c2)ncc1N1CCC[C@](N)(c2ccc(OC(F)F)cn2)C1` [Example 209, (R)-9-((5-(3-amino-3-(5-(difluoromethoxy)pyridin-2-yl)piperidin-1-yl)-2-(3,4-difluorophenyl)pyridin-4-yl)methyl)-9H-purin-6-amine], the IC50 was 0.001 to 0.01 µM in test [2] and 0.324 µM in test [3] (CGTH-W-1 line, ELISA, 72 hours).

In the case of `COc1ccc(-c2cc(Cn3cnc4c(N)ncnc43)c(N3CCC[C@](N)(c4cccc(Cl)n4)C3)cn2)cc1` [Example 211, (R)-9-((5-(3-amino-3-(6-chloropyridin-2-yl)piperidin-1-yl)-2-(4-methoxyphenyl)pyridin-4-yl)methyl)-9H-purin-6-amine], the IC50 in test [2] is 0.001 to 0.01 µM; in test [3] (CGTH-W-1, 72 h), 0.387 µM.

For `Nc1ncnc2c1ncn2Cc1cc(-c2ccc(F)c(F)c2)ncc1N1CCC[C@](N)(c2cccc(O)n2)C1` [Example 217, (R)-6-(3-amino-1-(4-((6-amino-9H-purin-9-yl)methyl)-6-(3,4-difluorophenyl)pyridin-3-yl)piperidin-3-yl)pyridin-2-ol], the IC50 is 0.001 to 0.01 µM in test [2] and 2.24 µM in test [3] (CGTH-W-1, 72 h).

On to `Nc1ncnc2c1ncn2Cc1cc(-c2ccc(F)cc2)ncc1N1CCC[C@](N)(c2ccc(F)c(C(F)F)n2)C1` [Example 218, (R)-9-((5-(3-amino-3-(6-(difluoromethyl)-5-fluoropyridin-2-yl)piperidin-1-yl)-2-(4-fluorophenyl)pyridin-4-yl)methyl)-9H-purin-6-amine], for which the IC50 in test [2] was 0.01 to 1 µM; in test [3] (CGTH-W-1, 72 h), 0.101 µM.

`Cn1ncc2cc(-c3cc(Cn4cnc5c(N)ncnc54)c(N4CCCC(N)(c5cccc(Cl)n5)C4)cn3)ccc21` (stereo not drawn) [Example 225, 9-((5-(3-amino-3-(6-chloropyridin-2-yl)piperidin-1-yl)-2-(1-methyl-1H-indazol-5-yl)pyridin-4-yl)methyl)-9H-purin-6-amine]: the IC50 is 0.01 to 1 µM in test [2] and 1.96 µM in test [3] (CGTH-W-1, 72 h).

Regarding `Nc1ncnc2c1ncn2Cc1cc(-c2ccc(OC(F)F)c(F)c2)ncc1N1CCCC(N)(c2cccc(Cl)n2)C1` (stereo not drawn) [Example 228, 9-((5-(3-amino-3-(6-chloropyridin-2-yl)piperidin-1-yl)-2-(4-(difluoromethoxy)-3-fluorophenyl)pyridin-4-yl)methyl)-9H-purin-6-amine], the IC50 is 0.01 to 1 µM in test [2] and 0.611 µM in test [3] (CGTH-W-1, 72 h).

With `Nc1ncnc2c1ncn2Cc1cc(-c2ccc(F)c(F)c2)ncc1N1CCCC(N)(c2cccnn2)C1` (stereo not drawn) [Example 253, 9-((5-(3-amino-3-(pyridazin-3-yl)piperidin-1-yl)-2-(3,4-difluorophenyl)pyridin-4-yl)methyl)-9H-purin-6-amine], the IC50 was 0.01 to 1 µM in test [2] and 0.357 µM in test [3] (CGTH-W-1, 72 h).

Regarding `Nc1ncnc2c1ncn2Cc1cc(-c2ccc(F)c(F)c2)ncc1N1CCCC(N)(c2ccncn2)C1` (stereo not drawn) [Example 255, 9-((5-(3-amino-3-(pyrimidin-4-yl)piperidin-1-yl)-2-(3,4-difluorophenyl)pyridin-4-yl)methyl)-9H-purin-6-amine], the IC50 in test [2] is 0.01 to 1 µM; in test [3] (CGTH-W-1, 72 h) it was 0.232 µM.

Consider `Cc1cncc([C@@]2(N)CCCN(c3cnc(-c4ccc(F)c(F)c4)cc3Cn3cnc4c(N)ncnc43)C2)n1` [Example 258, (R)-9-((5-(3-amino-3-(6-methylpyrazin-2-yl)piperidin-1-yl)-2-(3,4-difluorophenyl)pyridin-4-yl)methyl)-9H-purin-6-amine], for which the IC50 in test [2] is 0.01 to 1 µM; in test [3] (CGTH-W-1, 72 h) it was 0.434 µM.

As to `Nc1ncnc2c1ncn2Cc1cc(-c2ccc(F)cc2)ncc1N1CCCC(N)(c2csc(Cl)n2)C1` (stereo not drawn) [Example 281, 9-((5-(3-amino-3-(2-chlorothiazol-4-yl)piperidin-1-yl)-2-(4-fluorophenyl)pyridin-4-yl)methyl)-9H-purin-6-amine], the IC50 in test [2] was 0.01 to 1 µM; in test [3] (CGTH-W-1, 72 h), 0.826 µM.

Regarding `Cn1cc(C2(N)CCCN(c3cnc(-c4ccc(F)c(F)c4)cc3Cn3cnc4c(N)ncnc43)C2)nn1` (stereo not drawn) [Example 282, 9-((5-(3-amino-3-(1-methyl-1H-1,2,3-triazol-4-yl)piperidin-1-yl)-2-(3,4-difluorophenyl)pyridin-4-yl)methyl)-9H-purin-6-amine], the IC50 in test [2] was 0.01 to 1 µM; in test [3] (CGTH-W-1, 72 h) it was 1.53 µM.

As for `COc1ccc(-c2cc(Cn3cnc4c(N)ncnc43)c(N3C[C@H](N)C[C@@H](CF)C3)cn2)cc1F` [Example 306, 9-((5-((3R,5R)-3-amino-5-(fluoromethyl)piperidin-1-yl)-2-(3-fluoro-4-methoxyphenyl)pyridin-4-yl)methyl)-9H-purin-6-amine], the IC50 in test [2] is 0.01 to 1 µM; in test [3] (CGTH-W-1, 72 h), 6.46 µM.
